{"source": "paper PMC10507085", "about": "“Pharmacological inhibition of TBK1/IKKε blunts immunopathology in a murine model of SARS-CoV-2 infection” (Nature Communications, 2023)", "assay_in_all_cases": "biochemical", "parameters_in_all_cases": "KINOMEscan competition binding, DNA-tagged kinase against immobilised ligand, qPCR read-out", "conditions_in_all_cases": "read-out: Percent Control", "key": {"[1]": {"biological_target": "TSSK1B (Homo sapiens, UniProt Q9BXA7)", "sequence (Q9BXA7 whole entry)": "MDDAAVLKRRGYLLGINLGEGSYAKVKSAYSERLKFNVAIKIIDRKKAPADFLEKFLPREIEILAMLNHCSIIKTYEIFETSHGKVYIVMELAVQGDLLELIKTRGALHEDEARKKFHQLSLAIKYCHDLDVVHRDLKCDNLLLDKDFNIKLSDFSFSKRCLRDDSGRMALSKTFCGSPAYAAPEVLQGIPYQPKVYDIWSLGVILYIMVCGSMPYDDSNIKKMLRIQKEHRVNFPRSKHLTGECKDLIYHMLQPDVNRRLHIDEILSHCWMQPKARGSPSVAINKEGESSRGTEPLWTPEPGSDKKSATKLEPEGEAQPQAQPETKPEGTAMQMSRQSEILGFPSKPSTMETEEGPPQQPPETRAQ", "description": "(§1) The KINOMEscan^TM kinase assays[65] were performed by Eurofins DiscoverX Corporation. For each kinase, the assay relies on the ability of the tested compound to compete against an immobilised ligand for binding to the DNA-tagged kinase. RT-qPCR is then used to measure the quantity of kinase molecules bound to the immobilised ligand, which is decreased if the tested compound competed with the kinase-ligand interaction. An 11-point 3-fold serial dilution of IDX compound was prepared in 100% DMSO at 100× final test concentration and subsequently diluted to 1× in the assay. […]"}, "[2]": {"biological_target": "MAP2K7 (Homo sapiens, UniProt O14733)", "sequence (O14733 whole entry)": "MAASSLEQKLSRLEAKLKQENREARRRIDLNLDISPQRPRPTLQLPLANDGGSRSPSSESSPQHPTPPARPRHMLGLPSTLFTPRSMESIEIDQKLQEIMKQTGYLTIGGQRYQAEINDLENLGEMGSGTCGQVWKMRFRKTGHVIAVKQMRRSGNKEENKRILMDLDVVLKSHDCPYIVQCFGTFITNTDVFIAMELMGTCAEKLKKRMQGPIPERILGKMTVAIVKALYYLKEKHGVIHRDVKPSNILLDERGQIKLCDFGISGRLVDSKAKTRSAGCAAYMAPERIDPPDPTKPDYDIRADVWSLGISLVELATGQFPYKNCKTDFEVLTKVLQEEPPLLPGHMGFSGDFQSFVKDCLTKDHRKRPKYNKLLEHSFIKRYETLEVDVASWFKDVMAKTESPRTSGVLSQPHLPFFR", "description": "as §1"}, "[3]": {"biological_target": "TEK (Homo sapiens, UniProt Q02763)", "description": "as §1"}, "[4]": {"biological_target": "PRKCD (Homo sapiens, UniProt Q05655)", "description": "as §1"}, "[5]": {"biological_target": "SBK1 (Homo sapiens, UniProt Q52WX2)", "description": "as §1"}, "[6]": {"biological_target": "EPHA3 (Homo sapiens, UniProt P29320)", "description": "as §1"}, "[7]": {"biological_target": "BMPR1B (Homo sapiens, UniProt O00238)", "sequence (O00238 whole entry)": "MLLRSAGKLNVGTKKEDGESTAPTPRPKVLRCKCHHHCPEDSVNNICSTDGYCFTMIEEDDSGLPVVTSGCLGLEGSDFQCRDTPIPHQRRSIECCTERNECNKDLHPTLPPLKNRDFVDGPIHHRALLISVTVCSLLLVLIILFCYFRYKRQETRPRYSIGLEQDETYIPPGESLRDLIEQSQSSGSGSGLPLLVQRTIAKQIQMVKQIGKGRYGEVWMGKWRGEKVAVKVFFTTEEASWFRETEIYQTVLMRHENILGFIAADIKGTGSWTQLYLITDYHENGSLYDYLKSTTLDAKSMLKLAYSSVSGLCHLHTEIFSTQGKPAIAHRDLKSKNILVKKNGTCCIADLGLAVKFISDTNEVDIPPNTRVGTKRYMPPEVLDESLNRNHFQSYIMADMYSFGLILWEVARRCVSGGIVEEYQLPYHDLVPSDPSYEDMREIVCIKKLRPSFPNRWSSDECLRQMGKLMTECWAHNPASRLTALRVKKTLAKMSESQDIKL", "description": "as §1"}, "[8]": {"biological_target": "RIPK2 (Homo sapiens, UniProt O43353)", "description": "as §1"}, "[9]": {"biological_target": "RET (Homo sapiens, UniProt P07949)", "sequence (P07949 whole entry)": "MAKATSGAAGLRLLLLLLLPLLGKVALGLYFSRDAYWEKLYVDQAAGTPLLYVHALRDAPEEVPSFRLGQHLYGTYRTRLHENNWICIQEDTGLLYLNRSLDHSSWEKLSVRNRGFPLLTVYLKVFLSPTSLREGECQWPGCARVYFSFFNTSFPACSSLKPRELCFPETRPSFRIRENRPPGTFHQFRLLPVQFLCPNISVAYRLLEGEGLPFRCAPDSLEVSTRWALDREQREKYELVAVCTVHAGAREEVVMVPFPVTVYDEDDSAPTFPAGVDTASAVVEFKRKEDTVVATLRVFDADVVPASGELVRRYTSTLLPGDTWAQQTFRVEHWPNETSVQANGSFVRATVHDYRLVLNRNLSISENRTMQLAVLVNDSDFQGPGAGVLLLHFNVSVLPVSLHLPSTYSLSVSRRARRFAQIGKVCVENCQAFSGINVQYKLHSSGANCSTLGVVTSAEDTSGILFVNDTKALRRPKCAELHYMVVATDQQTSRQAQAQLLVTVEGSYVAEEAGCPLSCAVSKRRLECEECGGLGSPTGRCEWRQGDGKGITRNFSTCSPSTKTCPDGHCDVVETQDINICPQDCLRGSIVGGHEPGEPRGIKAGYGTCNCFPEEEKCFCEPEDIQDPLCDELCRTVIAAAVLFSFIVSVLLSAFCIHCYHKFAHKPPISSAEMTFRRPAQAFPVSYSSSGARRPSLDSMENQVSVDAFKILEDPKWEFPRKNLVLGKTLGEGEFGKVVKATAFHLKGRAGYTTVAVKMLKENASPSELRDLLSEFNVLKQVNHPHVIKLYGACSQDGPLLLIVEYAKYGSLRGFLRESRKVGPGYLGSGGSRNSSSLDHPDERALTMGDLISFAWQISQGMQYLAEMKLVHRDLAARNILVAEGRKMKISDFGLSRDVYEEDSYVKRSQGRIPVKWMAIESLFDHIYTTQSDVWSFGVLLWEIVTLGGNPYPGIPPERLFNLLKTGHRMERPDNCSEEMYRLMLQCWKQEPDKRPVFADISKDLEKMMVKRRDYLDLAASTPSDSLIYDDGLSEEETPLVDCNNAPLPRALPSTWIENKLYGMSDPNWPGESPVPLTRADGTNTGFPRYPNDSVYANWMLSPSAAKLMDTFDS", "description": "as §1"}, "[10]": {"biological_target": "TTK (Homo sapiens, UniProt P33981)", "description": "as §1"}, "[11]": {"biological_target": "PIKFYVE (Homo sapiens, UniProt Q9Y2I7)", "description": "as §1"}, "[12]": {"biological_target": "LCK (Homo sapiens, UniProt P06239)", "sequence (P06239 whole entry)": "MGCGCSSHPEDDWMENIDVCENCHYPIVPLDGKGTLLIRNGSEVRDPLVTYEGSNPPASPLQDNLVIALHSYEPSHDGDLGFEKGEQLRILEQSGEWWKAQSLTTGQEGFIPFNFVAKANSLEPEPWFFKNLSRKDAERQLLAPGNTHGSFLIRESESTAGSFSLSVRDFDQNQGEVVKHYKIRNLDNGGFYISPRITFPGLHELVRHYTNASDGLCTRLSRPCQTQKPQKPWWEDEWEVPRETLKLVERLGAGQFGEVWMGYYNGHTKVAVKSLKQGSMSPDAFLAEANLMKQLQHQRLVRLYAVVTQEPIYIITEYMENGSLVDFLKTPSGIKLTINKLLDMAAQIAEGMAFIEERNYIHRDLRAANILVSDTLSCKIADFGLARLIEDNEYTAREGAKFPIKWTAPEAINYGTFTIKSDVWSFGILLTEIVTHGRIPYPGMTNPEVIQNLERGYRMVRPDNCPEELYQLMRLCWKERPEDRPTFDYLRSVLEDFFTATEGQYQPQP", "description": "as §1"}, "[13]": {"biological_target": "PRKX (Homo sapiens, UniProt P51817)", "sequence (P51817 whole entry)": "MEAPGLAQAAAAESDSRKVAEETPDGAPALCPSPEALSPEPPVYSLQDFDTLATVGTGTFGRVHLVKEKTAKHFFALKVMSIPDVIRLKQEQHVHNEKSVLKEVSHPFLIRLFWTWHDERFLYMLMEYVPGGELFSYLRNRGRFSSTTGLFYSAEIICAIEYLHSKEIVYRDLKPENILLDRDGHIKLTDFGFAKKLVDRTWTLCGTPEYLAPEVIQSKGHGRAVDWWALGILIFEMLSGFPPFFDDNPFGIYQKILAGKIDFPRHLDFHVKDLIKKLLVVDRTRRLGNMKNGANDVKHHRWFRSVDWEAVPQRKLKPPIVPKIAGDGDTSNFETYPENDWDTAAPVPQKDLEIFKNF", "description": "as §1"}, "[14]": {"biological_target": "FGFR4 (Homo sapiens, UniProt P22455)", "description": "as §1"}, "[15]": {"biological_target": "CAMK2B (Homo sapiens, UniProt Q13554)", "sequence (Q13554 whole entry)": "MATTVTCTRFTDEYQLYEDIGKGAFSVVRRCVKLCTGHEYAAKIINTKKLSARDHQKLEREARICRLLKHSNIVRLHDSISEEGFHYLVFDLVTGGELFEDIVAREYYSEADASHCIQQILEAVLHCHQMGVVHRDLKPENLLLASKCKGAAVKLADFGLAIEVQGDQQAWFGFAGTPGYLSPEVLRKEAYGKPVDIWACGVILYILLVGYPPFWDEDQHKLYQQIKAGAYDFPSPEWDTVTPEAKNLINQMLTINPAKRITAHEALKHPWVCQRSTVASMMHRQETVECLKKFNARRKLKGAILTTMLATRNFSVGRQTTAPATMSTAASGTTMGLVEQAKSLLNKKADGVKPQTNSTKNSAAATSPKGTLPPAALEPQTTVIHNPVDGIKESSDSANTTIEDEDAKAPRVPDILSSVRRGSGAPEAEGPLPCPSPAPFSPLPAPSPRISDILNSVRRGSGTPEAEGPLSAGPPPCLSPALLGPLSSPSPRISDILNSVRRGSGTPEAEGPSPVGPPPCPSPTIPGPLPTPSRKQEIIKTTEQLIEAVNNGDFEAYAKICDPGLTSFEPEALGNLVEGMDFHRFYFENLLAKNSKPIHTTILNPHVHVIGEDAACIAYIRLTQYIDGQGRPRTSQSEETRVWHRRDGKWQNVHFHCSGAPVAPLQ", "description": "as §1"}, "[16]": {"biological_target": "BMPR2 (Homo sapiens, UniProt Q13873)", "description": "as §1"}, "[17]": {"biological_target": "MAP3K14 (Homo sapiens, UniProt Q99558)", "description": "as §1"}, "[18]": {"biological_target": "T1, ADRBK1 (Homo sapiens, UniProt P25098)", "T1 construct": "gene GRK2", "T1 sequence (P25098 whole entry)": "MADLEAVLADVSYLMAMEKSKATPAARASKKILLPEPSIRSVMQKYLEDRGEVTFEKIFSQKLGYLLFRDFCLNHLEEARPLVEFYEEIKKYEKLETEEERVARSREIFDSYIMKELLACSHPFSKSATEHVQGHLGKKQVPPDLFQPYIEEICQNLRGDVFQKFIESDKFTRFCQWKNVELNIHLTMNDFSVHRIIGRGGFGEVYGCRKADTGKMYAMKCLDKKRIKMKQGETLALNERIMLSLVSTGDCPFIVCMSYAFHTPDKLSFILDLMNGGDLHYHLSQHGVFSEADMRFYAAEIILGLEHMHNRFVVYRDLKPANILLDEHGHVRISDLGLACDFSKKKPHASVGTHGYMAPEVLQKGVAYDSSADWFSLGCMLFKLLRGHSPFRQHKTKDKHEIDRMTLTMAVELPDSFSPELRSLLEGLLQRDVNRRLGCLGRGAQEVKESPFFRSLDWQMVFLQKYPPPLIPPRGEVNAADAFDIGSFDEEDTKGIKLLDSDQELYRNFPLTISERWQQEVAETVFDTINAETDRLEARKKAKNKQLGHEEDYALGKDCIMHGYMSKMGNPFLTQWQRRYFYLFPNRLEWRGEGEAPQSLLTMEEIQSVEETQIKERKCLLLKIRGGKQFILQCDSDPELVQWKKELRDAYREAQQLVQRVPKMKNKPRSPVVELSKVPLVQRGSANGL", "description": "as §1"}, "[19]": {"biological_target": "PAK4 (Homo sapiens, UniProt O96013)", "description": "as §1"}, "[20]": {"biological_target": "CSNK1A1 (Homo sapiens, UniProt P48729)", "sequence (P48729 whole entry)": "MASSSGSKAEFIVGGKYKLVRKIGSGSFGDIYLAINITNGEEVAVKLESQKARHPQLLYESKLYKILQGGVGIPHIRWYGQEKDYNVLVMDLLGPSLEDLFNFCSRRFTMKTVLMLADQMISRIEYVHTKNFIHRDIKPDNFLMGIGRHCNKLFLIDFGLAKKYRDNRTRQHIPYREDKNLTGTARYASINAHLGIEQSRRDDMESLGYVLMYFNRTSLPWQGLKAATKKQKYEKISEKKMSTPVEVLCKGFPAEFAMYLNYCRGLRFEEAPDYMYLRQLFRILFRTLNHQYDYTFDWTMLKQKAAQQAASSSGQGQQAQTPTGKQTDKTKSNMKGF", "description": "as §1"}}, "data": [{"smiles": "Oc1ccc(C2=Cc3ccc(O)cc3OC2)cc1", "note": "[compound 1, idronoxil]", "values": [{"measurement": "remaining binding at 10 µM", "setting": "[1]", "value": 87, "unit": "%"}, {"measurement": "remaining binding at 10 µM", "setting": "[2]", "value": 91, "unit": "%"}, {"measurement": "remaining binding at 10 µM", "setting": "[3]", "value": 96, "unit": "%"}, {"measurement": "remaining binding at 10 µM", "setting": "[4]", "value": 96, "unit": "%"}, {"measurement": "remaining binding at 10 µM", "setting": "[5]", "value": 91, "unit": "%"}, {"measurement": "remaining binding at 10 µM", "setting": "[6]", "value": 89, "unit": "%"}, {"measurement": "remaining binding at 10 µM", "setting": "[7]", "value": 66, "unit": "%"}, {"measurement": "remaining binding at 10 µM", "setting": "[8]", "value": 81, "unit": "%"}, {"measurement": "remaining binding at 10 µM", "setting": "[9]", "value": 96, "unit": "%"}, {"measurement": "remaining binding at 10 µM", "setting": "[10]", "value": 83, "unit": "%"}, {"measurement": "remaining binding at 10 µM", "setting": "[11]", "value": 91, "unit": "%"}, {"measurement": "remaining binding at 10 µM", "setting": "[12]", "value": 60, "unit": "%"}, {"measurement": "remaining binding at 10 µM", "setting": "[13]", "value": 88, "unit": "%"}, {"measurement": "remaining binding at 10 µM", "setting": "[14]", "value": 95, "unit": "%"}, {"measurement": "remaining binding at 10 µM", "setting": "[15]", "value": 83, "unit": "%"}, {"measurement": "remaining binding at 10 µM", "setting": "[16]", "value": 99, "unit": "%"}, {"measurement": "remaining binding at 10 µM", "setting": "[17]", "value": 60, "unit": "%"}, {"measurement": "remaining binding at 10 µM", "setting": "[18]", "value": 76, "unit": "%"}, {"measurement": "remaining binding at 10 µM", "setting": "[19]", "value": 76, "unit": "%"}, {"measurement": "remaining binding at 10 µM", "setting": "[20]", "value": 86, "unit": "%"}]}]}
